The values that follow are results of earlier work, collected in article PMC7395068, “The evolution of strategies to minimise the risk of human drug-induced liver injury (DILI) in drug discovery and development” (Archives of Toxicology, 2020).

The conditions of the data set: cited from earlier work.
Where [1] appears, read: binary in vivo human DILI call, ref Chen 2016.
Where [2] appears, read: human DILI, LTKB DILIrank category, ref Chen 2016.

The structures appear in SMILES notation. Read-outs that look alike come from different tables or passages of the source.

With `C=C1C[C@@H]2[C@H](CC[C@]3(C)C(=O)CC[C@@H]23)[C@@]2(C)C=CC(=O)C=C12` [exemestane], the “DILI +VE (5-8), DILI -VE (-4)” value under setting [1] is listed as “+VE”. The DILI severity category entry under setting [2] was “vMost-DILI-Concern”.

As to `O=C(c1cc(O)c(O)c(O)c1)c1ccc(O)c(O)c1O` [exifone], the “DILI +VE (5-8), DILI -VE (-4)” value under setting [1] is reported as “+VE”. Besides, under setting [2], the DILI severity category entry is recorded as “vMost-DILI-Concern”.

As for `CN1CCC(Nc2ncc3ncnc(Nc4ccc(F)c(Cl)c4)c3n2)CC1` [falnidamol], where the note is “in vivo”, the “DILI +VE (5-8), DILI -VE (-4)” value is given as “+VE” and the DILI severity category result was “vMost-DILI-Concern”.

For the compound `CC(=O)OCC(CCn1cnc2cnc(N)nc21)COC(C)=O` [famciclovir], the “DILI +VE (5-8), DILI -VE (-4)” value under setting [1] is listed as “-VE”. Moreover, under setting [2], the DILI severity category result is reported as “Ambiguous DILI-concern”.

With `CC(C)(Oc1ccc(C(=O)c2ccc(Cl)cc2)cc1)C(=O)O` [fenofibric acid], the “DILI +VE (5-8), DILI -VE (-4)” value under setting [1] is on record as “-VE”. In addition, the DILI severity category result under setting [2] is listed as “Ambiguous DILI-concern”.

In the case of `CC(C)C(=O)Oc1ccc(CO)cc1[C@H](CCN(C(C)C)C(C)C)c1ccccc1` [fesoterodine], under setting [1], the “DILI +VE (5-8), DILI -VE (-4)” value is on record as “-VE”. The DILI severity category entry under setting [2] is “vNo-DILI-Concern”.

`COc1cccc2c1[C@@H]1CN(CCCCn3c(=O)[nH]c4c(sc5ncc(-c6ccccc6)nc54)c3=O)C[C@@H]1CO2` [fiduxosin]: the “DILI +VE (5-8), DILI -VE (-4)” value under setting [1] is reported as “+VE”. In addition, the DILI severity category entry under setting [2] is given as “vMost-DILI-Concern”.

Regarding `C[C@]12CCC(=O)C=C1CC[C@H]1[C@@H]3CC[C@](O)(C(=O)CO)[C@@]3(C)C[C@H](O)[C@@]12F` [fludrocortisone], under setting [1], the “DILI +VE (5-8), DILI -VE (-4)” value is on record as “-VE”. In addition, the DILI severity category entry under setting [2] is on record as “vNo-DILI-Concern”.

In the case of `O=C1OC2(c3ccc(O)cc3Oc3cc(O)ccc32)c2ccccc21` [fluorescein], under setting [1], the “DILI +VE (5-8), DILI -VE (-4)” value is “-VE”. The DILI severity category entry under setting [2] is given as “vNo-DILI-Concern”.

Turning to `OCCN1CCN(CCCN2c3ccccc3Sc3ccc(C(F)(F)F)cc32)CC1` [fluphenazine], the “DILI +VE (5-8), DILI -VE (-4)” value under setting [1] is listed as “-VE”. The DILI severity category result under setting [2] is given as “Ambiguous DILI-concern”.

As to `CCN(CC)CCN1C(=O)CN=C(c2ccccc2F)c2cc(Cl)ccc21` [flurazepam], the “DILI +VE (5-8), DILI -VE (-4)” value under setting [1] was “+VE”. Moreover, the DILI severity category entry under setting [2] was “vLess-DILI-Concern”.

On to `CO[C@H]1O[C@H](COS(=O)(=O)O)[C@@H](O[C@@H]2O[C@@H](C(=O)O)[C@@H](O[C@H]3O[C@H](COS(=O)(=O)O)[C@@H](O[C@@H]4O[C@H](C(=O)O)[C@@H](O[C@H]5O[C@H](COS(=O)(=O)O)[C@@H](O)[C@H](O)[C@H]5NS(=O)(=O)O)[C@H](O)[C@H]4O)[C@H](OS(=O)(=O)O)[C@H]3NS(=O)(=O)O)[C@H](O)[C@H]2OS(=O)(=O)O)[C@H](O)[C@H]1NS(=O)(=O)O` [fondaparinux sodium], for which the “DILI +VE (5-8), DILI -VE (-4)” value under setting [1] is recorded as “+VE”. Also, the DILI severity category entry under setting [2] is given as “vLess-DILI-Concern”.

For the compound `CC(C)CN(C[C@@H](OP(=O)(O)O)[C@H](Cc1ccccc1)NC(=O)O[C@H]1CCOC1)S(=O)(=O)c1ccc(N)cc1` [fosamprenavir], under setting [1], the “DILI +VE (5-8), DILI -VE (-4)” value is reported as “-VE”. Also, the DILI severity category entry under setting [2] is “Ambiguous DILI-concern”.

Turning to `C[C@@H](O[C@H]1OCCN(Cc2nc(O)n(P(=O)(O)O)n2)[C@H]1c1ccc(F)cc1)c1cc(C(F)(F)F)cc(C(F)(F)F)c1` [fosaprepitant], under setting [1], the “DILI +VE (5-8), DILI -VE (-4)” value is “-VE”. Further, under setting [2], the DILI severity category entry was “Ambiguous DILI-concern”.

With `C[C@@H]1O[C@@H]1P(=O)(O)O` [fosfomycin], the “DILI +VE (5-8), DILI -VE (-4)” value under setting [1] is on record as “+VE”. Moreover, under setting [2], the DILI severity category result is “vLess-DILI-Concern”.

Take `CCC(=O)O[C@@H](O[P@](=O)(CCCCc1ccccc1)CC(=O)N1C[C@H](C2CCCCC2)C[C@H]1C(=O)O)C(C)C` [fosinopril]: the “DILI +VE (5-8), DILI -VE (-4)” value under setting [1] is reported as “+VE”. In addition, the DILI severity category entry under setting [2] is “vLess-DILI-Concern”.

On to `O=C1NC(c2ccccc2)(c2ccccc2)C(=O)N1COP(=O)(O)O` [fosphenytoin], for which, under setting [1], the “DILI +VE (5-8), DILI -VE (-4)” value is on record as “+VE”. In addition, the DILI severity category result under setting [2] was “vMost-DILI-Concern”.
